Laboratory results reported in patent US20050059745A1, “Antiviral therapy” (priority 1999, published 2005).

Tests used:
[1] = Toxicity determinations of anti-viral compounds (Table 3); assay type: cell-based
HIV-1 [2] = conditions: Table 3
Procedure: MDM, and PBMC, were incubated with HIV at a multiplicity of infection of 0.02, and 0.006 or 0.001, respectively. After two hours cells are washed to remove unbound virus and cultured for 4 to 7 days in different concentrations of the drug under investigation. On day 4, 5 and 7, 0.01 ml of supernatant is removed from the culture and virus in culture supernatant is inactivated in a final concentration of 0.05% empigen (Calbiochem-Novabiochem Co., La Jolla, Calif.). The presence of HIV-1 in the inactivated supernatant is monitored by checking for the p24-core antigen using the enzyme-linked immunosorbent assay (ELISA) system of John Moore.

[3] = test system: monocyte-derived macrophages (MDM); experiment: MDM viability, MTT cytotoxicity assay; assay type: cell-based, human; conditions: 4 day incubation
Procedure: FIG. 3—Monocyte-derived macrophages (MDM) were obtained like described in legend of FIG. 2. […] After a 4 day incubation period, cellular viability was assessed by MTT cytotoxicity assay where viable cells convert MTT into a colored formazan dye that can be measured spectrophotometrically.
Cell viability is assessed by the MTT assay. In short, cells are incubated with MTT 3-(4,5-dimethylthiazol-2-yl)-2,5-diphenyltetrazollumbromide (Sigma) for 2 hours at 37° C. During this time viable cells convert MTT into […] formazan dyes. Afterwards crystals are solubilized with a solution containing isopropanol. The OD of the supernatant is measured at 550 nm.
Monocyte-derived macrophages (MDM) were obtained like described above. […] After a 4 days incubation period cellular viability was assessed by MTT cytotoxicity assay where viable cells convert MTT into a colored formazan dye that can be measured spectrophotometrically.

PBMC = PBMC viability, WST-1 cytotoxicity assay; assay type: cell-based, human; conditions: 5 days incubation
Procedure: FIG. 5—PBMC were obtained and stimulated as described in legend of FIG. 4. […] After a 5 days incubation period, cellular viability was assessed by WST-1 cytotoxicity assay where viable cells convert WST-1 into a coloured formazan dye that can be measured spectrophotometrically.
Cell viability is assessed with WST-1 assay. Cells are incubated with the tetrazolium salt WST-1 (4-[3-(4-lodophenyl)-2-(4-nitrophenyl)-2H-5-tetrazolio]-1,3-benzene disulfonate) for 2 hours at 37° C. During this time viable cells convert WST-1 into water-soluble formazan dyes. The OD of the supernatant is measured at 550 nm.

HIV-1Ba-L [4] = experiment: HIV-1Ba-L replication in acutely infected monocyte-derived macrophages, p24 ELISA; assay type: cell-based; conditions: 30 μM APHS, acutely infected MDM, moi 0.02
Procedure: Concentrations above 0.3 μM APHS inhibit p24 production. 30 μM APHS inhibits HIV-1 replication by 88%.
Cells are washed twice and monocytes are purified by countercurrent centrifugal elutriation.

HIV-1Ba-L [5] = experiment: HIV-1 production by chronically infected MDM, p24 ELISA; assay type: cell-based; conditions: APHS added 5 days after infection, 2 days incubation (FIG. 6D)
HIV-1BaL = HIV-1BaL replication in acutely infected PHA-stimulated PBMC, p24 ELISA; assay type: cell-based
Procedure: (§1) FIG. 4—Peripheral blood mononuclear cells (PBMC) were isolated from heparinized blood from HIV-1-, HIV-2-, and hepatitis B-seronegative donors and obtained on Ficoll-Hypaque density gradients. Cells were washed twice, stimulated with 5 mg/ml phytohemagglutinin (PHA), and cultured in RPMI-1640 medium supplemented with 5 mM Hepes, 19 mM sodium bicarbonate, 10 mg/mL gentamycin, and 10% heat-inactivated fetal calf serum at a concentration of 2×10^6 cells/ml. After 3 days of incubation stimulated PBMC were recovered from the flasks and infected for 2 hours with (a) HIV-1AT at a multiplicity of infection of 0.001, (b) HIV-1BaL at a multiplicity of infection of 0.006 and (c) HIV-1BaL or HIV-1AT at a multiplicity of infection of 0.01 or 0.001, respectively. HIV-infected and mock-infected PBMC were washed twice to remove unbound virus and cultured for 4 to 7 days in different concentrations of APHS. After 4 and 5 days of incubation samples of culture supernatant were collected and p24-core antigen production was quantified using the enzyme-linked immunosorbent assay (ELISA) system of John Moore.
Peripheral blood mononuclear cell (PBMC) fractions are isolated from heparinised blood from HIV-1-, HIV-2- and hepatitis B- seronegative donors (Blood-bank, Utrecht, the Netherlands) by Ficoll-Isopaque gradient separation. Cells are washed twice, stimulated with 4 μg/ml phytohemagglutinin (PHA), and cultured in RPMI-1640 medium supplemented with 5 mM Hepes, 19 mM sodium bicarbonate, 10 μg/ml gentamycin, and 10% heat-inactivated fetal calf serum at a concentration of 1×10^6 cells/ml.
(A, B) Peripheral blood mononuclear cells (PBMC) were isolated from heparinized blood from HIV-1-, HIV-2-, and hepatitis B- seronegative donors and obtained on Ficoll-Hypaque density gradients. […] After 2 days of incubation samples of culture supernatant were collected. p24-core antigen production was quantified using the enzyme-linked immunosorbent assay (ELISA) system of John Moore.

HIV-1Ba-L [6] = experiment: HIV-1 production of chronically infected PBMC, p24 ELISA; assay type: cell-based; conditions: APHS added 5 days after infection, 2 days incubation (FIG. 6B)
Procedure: (A, B) Peripheral blood mononuclear cells (PBMC) were isolated from heparinized blood from HIV-1-, HIV-2-, and hepatitis B- seronegative donors and obtained on Ficoll-Hypaque density gradients. Cells were washed twice, stimulated with 5 μg/ml phytohemagglutinin (PHA), and cultured in RPMI-1640 medium supplemented with 5 mM Hepes, 19 mM sodium bicarbonate, 10 μg/mL gentamycin, and 10% heat-inactivated fetal calf serum (PBMC culture medium) at a concentration of 2×10^6 cells/ml. After 3 days of incubation stimulated PBMC were recovered from the flasks and infected for 2 hours with HIV-1Ba-L at a multiplicity of infection of 0.01. Afterwards, HIV-infected and mock-infected PBMC were washed twice to remove unbound virus. (A) PBMC were cultured at a density of 6×10^5 cells/well with different concentrations of APHS and after 5 days of incubation samples of culture supernatant were collected. (B) PBMC were cultured in suspension at a concentration of 2×10^6 cells/ml in Teflon flasks in PBMC culture medium. […] After 2 days of incubation samples of culture supernatant were collected. p24-core antigen production was quantified using the enzyme-linked immunosorbent assay (ELISA) system of John Moore. […]

HIV-1 [7] = conditions: PBMC, FIG. 4
Procedure: as §1

[8] = test system: drug-resistant HIV strains; conditions: drug-resistant vs sensitive strain

Structure (SMILES)	not toxic at [1]	IC50 (HIV-1 [2])	cytotoxicity (MTT) [3]	concentrations found to reduce viability (WST-1) (PBMC)	inhibition of HIV-1 replication (HIV-1Ba-L [4])	inhibition of HIV-1 production by chronically infected MDM (HIV-1Ba-L [5])	inhibition of HIV-1BaL production (HIV-1BaL; 1 μM APHS, PBMC, lower infectivity (FIG. 4c))	inhibition of HIV-1Ba-L replication (HIV-1BaL; 30 μM APHS, acutely infected PBMC, moi 0.01 (FIG. 6A))	inhibition of HIV-1BaL replication (HIV-1BaL; PBMC, FIG. 4)	APHS concentrations that inhibit HIV-1Ba-L replication (HIV-1BaL; acutely infected PBMC, moi 0.01, 5 days (FIG. 6A))	inhibition of HIV-1 production of chronically infected PBMCs (HIV-1Ba-L [6])	APHS concentrations that inhibit HIV-1 production (HIV-1 [7])	inhibitory activity against drug resistant strains relative to a sensitive strain [8]
CCCCC#CCSc1ccccc1OCCCC [BPHS]	30 µM	40 µM	–	–	–	–	–	–	–	–	–	–	–
CCCCC#CCSc1ccccc1OC(C)=O [APHS, o-(acetoxy-phenyl)hept-2-ynyl sulfide]	30 µM	10 µM	None of the tested concentrations of APHS was found to be cytotoxic	≥ 100 µM	88%	does not inhibit	50%	100%	100%	above 3 μM	does not inhibit	above 1 μM	two- to four-fold higher
